In patent US20080213338A1, “IMPLANT STENT WITH A RETINOID FOR IMPROVED BIOCOMPATIBILITY” (priority 1997, published 2008):

Tested on: pigmented rabbits
Experiment: Retinal plug implantation in vitrectomized rabbit eyes, histopathology (PAS stain) at 28 days
Assay type: in vivo
Conditions: polylactic acid plug containing 10% by weight retinoid, inserted into vitreous through sclera; intravitreal injection of 500,000 human RPE cells; 28 days after insertion
Experimental: Retinal plugs were manufactured from poly(D,L)lactic acid (PLA) with an intrinsic viscosity of 0.6 DL/G. The retinoid 6-[(4,4-dimethyl thiochroman-6-yl)ethynl]nicotinic acid (AGN190299) was mixed with polymer in a three-dimensional mixer. The mixture was then extruded at 85° C. into a homogeneous rod. The retinoid was incorporated into the polymeric plug at a concentration of 10%. […] A 0.5 mm hole was drilled into the distal end of the plug to allow for suture fixation to the sclera. Placebo plugs containing no retinoid were also manufactured to the same dimensions. The average weight of the plugs was 8 mg. All plugs were sterilized by gamma irradiation at l Mrad.
The rabbit eyes were vitrectomized and the retinal plugs with or without incorporated retinoid were inserted through a sclerotomy 3 mm posterior to the corneoscleral limbus. The plugs were then fixated with the suture used to close the sclerotomy. An intravitreal injection of 500,000 human RPE cells was given to simulate traction retinal detachment. The rabbits were sacrificed at 28 days and histopathology was done.
These observed results are shown in FIG. 7 for the placebo plug and in FIG. 8 for the plug 10 including the retinoid as hereinabove described.

Q: How did the “fibrous inflammation of the capsule surrounding the plug (histopathology, PAS stain)” value turn out when `CC1(C)CCSc2ccc(C#Cc3ccc(C(=O)O)cn3)cc21` [AGN190299, 6-[(4,4-dimethylthiochroman-6-yl)ethynyl]nicotinic acid] was run?
A: The value was “very little fibrous inflammation”.
